Active and inactive are the calls of the source. No cut-off for these calls is given here.
Legend:
Cortical neurone [1] = test: Neuroprotective activity against oxygen glucose deprivation induced ischemic stroke model in primary C57BL/6J E14-17 mouse Cortical neurons assessed as increase in cell viability at 1 uM incubated for 24 hrs by CCK-8 assay (Rvb= 57.43 +/- 2.54 %); format: functional
SH-SY5Y [2] = test: Neuroprotective activity against oxygen glucose deprivation induced ischemic stroke model in human SH-SY5Y cells assessed as cell viability at 2 uM incubated for 24 hrs by CCK-8 assay; format: functional; settings: read-out: Activity
Cortical neurone [3] = test: Cytotoxicity against primary C57BL/6J E14-17 mouse Cortical neuron assessed as decrease in cell viability at 1 uM incubated for 24 hrs by CCK-8 assay relative to control; format: toxicity, cell-based
Cortical neurone [4] = test: Cytotoxicity against primary C57BL/6J E14-17 mouse Cortical neuron assessed as decrease in cell viability at 10 uM incubated for 24 hrs by CCK-8 assay relative to control; format: toxicity, cell-based
Cortical neurone [5] = test: Neuroprotective activity against oxygen glucose deprivation induced ischemic stroke model in primary C57BL/6J E14-17 mouse Cortical neurons assessed as increase in cell viability at 10 uM incubated for 24 hrs by CCK-8 assay (Rvb= 57.43 +/- 2.54 %); format: functional
Cortical neurone [6] = test: Neuroprotective activity against oxygen glucose deprivation induced ischemic stroke model in primary C57BL/6J E14-17 mouse Cortical neurons assessed as increase in cell viability at 0.5 to 20 uM incubated for 24 hrs by CCK-8 assay; format: functional, cell-based; settings: dose 0.5-20 µM
Cortical neurone [7] = test: Cytotoxicity against primary C57BL/6J E14-17 mouse Cortical neuron assessed as decrease in cell viability upto 50 uM incubated for 24 hrs by CCK-8 assay; format: toxicity, cell-based
Cortical neurone [8] = test: Cytotoxicity against primary C57BL/6J E14-17 mouse Cortical neuron assessed as decrease in cell viability at 0.1 to 20 uM incubated for 24 hrs by CCK-8 assay; format: toxicity, cell-based; settings: dose 0.1-20 µM
Cortical neurone [9] = test: Neuroprotective activity against oxygen glucose deprivation induced ischemic stroke model in primary C57BL/6J E14-17 mouse Cortical neurons assessed as increase in cell viability at 0.1 to 20 uM incubated for 24 hrs by CCK-8 assay; format: functional, cell-based; settings: dose 0.1-20 µM
Mus musculus [10] = test: Neuroprotective activity against middle cerebral artery occlusion-induced brain infarction C57BL/6 mouse model assessed as reduction in cerebral infarct volume at 20 mg/kg, ip and measured after 24 hrs by TTC staining based assay; format: functional, organism-based
Mus musculus [11] = test: Neuroprotective activity against middle cerebral artery occlusion-induced brain infarction C57BL/6 mouse model assessed as decrease in neurological deficit score at 10 mg/kg, ip and measured after 24 hrs by animal behavioral study relative to control; format: functional
[12] = Toxicity in middle cerebral artery occlusion-induced brain infarction C57BL/6 mouse model assessed as survival rate at 10 mg/kg, ip and measured after 24 hrs; format: organism-based; settings: in vivo
in vivo = settings: C57BL/6, mouse, ip, 20 mg/kg
SH-SY5Y [13] = test: Neuroprotective activity against oxygen glucose deprivation induced ischemic stroke model in human SH-SY5Y cells assessed as cell viability at 20 uM incubated for 24 hrs by CCK-8 assay; format: functional; settings: read-out: Activity
Cortical neurone [14] = test: Neuroprotective activity against oxygen glucose deprivation induced ischemic stroke model in primary C57BL/6J E14-17 mouse Cortical neurons assessed as increase in cell viability at 5 uM incubated for 24 hrs by CCK-8 assay (Rvb= 57.43 +/- 2.54 %); format: functional
Cortical neurone [15] = test: Cytotoxicity against primary C57BL/6J E14-17 mouse Cortical neuron assessed as decrease in cell viability at 10 to 20 uM incubated for 24 hrs by CCK-8 assay; format: toxicity, cell-based; settings: dose 10-20 µM
Cortical neurone [16] = test: Cytotoxicity against primary C57BL/6J E14-17 mouse Cortical neuron assessed as decrease in cell viability at 0.1 to 5 uM incubated for 24 hrs by CCK-8 assay; format: toxicity, cell-based; settings: dose 0.1-5 µM

SMILES | Activity (Cortical neurone [1]) | Activity (Cortical neurone [3]) | Activity (Cortical neurone [4]) | Activity (Cortical neurone [5]) | Activity (Cortical neurone [6]) | Activity (Cortical neurone [7]) | also measured
CC1=NN(c2ccccc2)C(=O)C1 [EDARAVONE] | 64.39% | 98.61% | 96.6% | 64.15% |  |  | viability at 2 µM (SH-SY5Y [2]): 71.3%
CCCCCCN[C@@H]1CC[C@@H](c2ccc(Cl)c(Cl)c2)c2ccccc21 (relative stereo) | 62.38% | 98.87% | 113.14% | 81.04% | Dose-Dependent Effect | Toxic | 
NCCc1c[nH]c2ccc(O)cc12 [SEROTONIN] |  |  |  |  |  |  | Activity (Cortical neurone [8]): Non-Toxic; Activity (Cortical neurone [9]): inactive
CC(=O)N[C@@H]1CC[C@@H](c2ccc(Cl)c(Cl)c2)c2ccccc21 (relative stereo) | 66.22% | 102.6% | 101.23% | 77.31% | Dose-Dependent Effect | Toxic | 
Clc1ccc([C@@H]2CC[C@@H](NC3CCCCC3)c3ccccc32)cc1Cl (relative stereo) | 61.62% | 97.01% | 102.77% | 69.46% | Dose-Dependent Effect | Toxic | 
CCCCCCCCN(C)[C@H]1CC[C@@H](c2ccc(Cl)c(Cl)c2)c2ccccc21 [listing 1 of 2 here] |  |  |  |  | Active |  | Activity (Mus musculus [10]): Active
CCCCCCCCN(C)[C@H]1CC[C@@H](c2ccc(Cl)c(Cl)c2)c2ccccc21 [listing 2 of 2 here] |  |  |  |  |  | Non-Toxic | Activity (Mus musculus [11]): 1.5; survival at 24 h [12]: 100%; mortality at 24 h (in vivo): 35.7%
Cc1cccc(CN[C@@H]2CC[C@@H](c3ccc(Cl)c(Cl)c3)c3ccccc32)c1 (relative stereo) | 65.53% | 96.85% | 102.54% | 81.18% | Dose-Dependent Effect | Toxic | 
COc1ccc(CN[C@@H]2CC[C@@H](c3ccc(Cl)c(Cl)c3)c3ccccc32)cc1OC (relative stereo) | 62.06% | 99.79% | 95.48% | 66.65% | Dose-Dependent Effect | Toxic | 
O=C(/C=C/c1ccc(O)c2c1[C@H](C(=O)O[C@H](Cc1ccc(O)c(O)c1)C(=O)O)[C@@H](c1ccc(O)c(O)c1)O2)O[C@H](Cc1ccc(O)c(O)c1)C(=O)O |  |  |  |  |  |  | viability at 20 µM (SH-SY5Y [13]): 78.1%; viability at 2 µM (SH-SY5Y [2]): 73.4%
CN[C@H]1CC[C@@H](c2ccc(Cl)c(Cl)c2)c2ccccc21 [SERTRALINE] |  | 99.08% | 94.25% |  |  | Non-Toxic | Activity (Cortical neurone [14]): 65.9%; Activity (Cortical neurone [1]; 24 h, 1 µM): 67.21%; Activity (Cortical neurone [15]): Toxic; Activity (Cortical neurone [16]): Non-Toxic; viability at 20 µM (SH-SY5Y [13]): 30.5%; viability at 2 µM (SH-SY5Y [2]): 81.9%; Activity (Cortical neurone [5]; 24 h, 10 µM): 58.85%

— ChEMBL document CHEMBL5360547 (Eur J Med Chem, 2023)
